Measured values from patent publication US12622892B2, “Methods for treating endometriosis” (THE TEXAS A&M UNIVERSITY SYSTEM, priority 2020, dated 2026).

How the values were obtained:
ESECT-40 cells = assay: Cell proliferation assay (MTT), ESECT-40; type: cell-based, human; details: 24 hr; 5-10 μM DIM-C-pPhOH-3-Cl-5-OCH3, 15-25 μM DIM-C-pPhOH; FIG. 2C
Description: Primary human endometriotic stromal cells from endometriosis patients: Ovarian endometrioma were isolated from endometriosis patients in the proliferative phase following the IRB-approved protocol. Isolated ectopic lesions were digested with collagenase type 3 (300 μg/ml) and DNaseI (40 μg/ml) for 90 min at 37° C., and then tissues were filtered through 150, 100, and 40 μm sieves to isolate endometrial stromal cells. The collected endometrial stromal cells were cultured in DMEM/F12 with 10% FBS plus 1× antibiotic/antimycotic solution and then validated by flow cytometry with a CD90 antibody (a mesenchymal marker). Henceforth, we refer to the stromal cells as ectopic endometrium isolated ovarian endometrioma (ESECT). As the control, primary normal endometrial stromal cells isolated from the biopsy of the eutopic endometrium of normal women (NEM) in the proliferative phase. All cells were incubated at 37° C. in CO2 incubator in an atmosphere of humidified 5% CO2 and 95% air.
Cell proliferation assay: Patient-derived endometriotic cells ESECT-7 and ESECT-40 were seeded into a 96-well plate, and the cells were then treated for 24 hr with either DMSO or different concentrations of DIM-C-pPhOH and DIM-C-pPhOH-3-Cl-5-OCH3. […] Dimethyl sulfoxide (DMSO) was added and incubated at […] for 10 min, and absorbance was measured at 570 nm.

IHEECs = assay: Expression of fibrosis markers in IHEECs; type: cell-based, human; details: 24 hours, vs control, FIG. 6B
ESECT-7 cells = assay: Quantitative real-time PCR of fibrosis markers, ESECT-7; type: cell-based, human; details: 24 hours, 20-25 μM DIM-C-pPhOH, 5-10 μM DIM-C-pPhOH-3-Cl-5-OCH3, vs DMSO control, FIG. 5C
Description: Quantitative real-time PCR: Total RNA was isolated from cultured cells according to the manufacturer's instructions (Zymo Research, Irvine, CA). The concentration and purity of the RNA samples were determined using a nanodrop spectrophotometer. Total RNA was reverse transcribed using iTaq Universal SYBR Green One-Step Kit (Thermo Fisher Scientific, Grand Island, NY) using the manufacturer's protocol with the CFX384 real-time PCR System (Bio-Rad). The comparative cycle threshold method was used for relative quantitation of samples. Values for each gene were normalized to expression levels of TATA-binding protein. The sequences of the primers used for real-time PCR included the following: α-SMA, 5′-GGCCGAGATCTCACTGACTAC-3′ (sense, SEQ ID NO. 13) and 5′-TTC ATG GAT GCC AGC AGA-3′ (antisense, SEQ ID NO. 14); COL1A1, 5′-CAG CCG CTT CAC CTA CAG C-3′ (sense, SEQ ID NO. 15) and 5′-TTTTGTATTCAATCAGTGTCTTGCC-3′ (antisense, SEQ ID NO. 16); CTGF, 5′-TTGGCCCAGACCCAACTATG-3′(sense, SEQ ID NO. 17) and 5′-CAGGAGGCGTTGTCATTGGT-3′ (antisense, SEQ ID NO. 18); FN, 5′-GGG AGC CTC GAA GAG C-3′ (sense 19) and 5′-AACAAGTACAAACCAACGCA-3′ (antisense, SEQ ID NO. 20) and TATA-binding protein, 5′-GATCAGAACAACAGCCTGCC-3′ (sense, SEQ ID NO. 21) and 5′-TTCTGAATAGGCTGTGGGGT-3′ […].

NR4A1 = molecular target: T1, NR4A1 (Homo sapiens, UniProt P22736); assay: Luciferase assay, NR4A1/NBRE-luc in ESECT-7 cells; type: cell-based; details: ESECT-7 cells transfected with NR4A1/NBRE-luc; 18 hr treatment; FIG. 2A
T1 construct: expressed in transfected cells; host or cells: ESECT-7 patient-derived endometriotic cells
Description: Luciferase assay: ESECT-7 and ESECT-40 cells were plated on 12-well plates in DMEM/F12 supplemented with 2.5% charcoal-stripped FBS. After overnight attachment and growth, various amounts of DNA [i.e., UASx5-Luc (500 ng), GAL4-NR4A1 (50 ng), NBREx3-Luc (800 ng), NurREx3-Luc (800 ng) and Flag-NR4A1 (80 ng)] were co-transfected into each well using Lipofectamine 2000 reagent (Invitrogen, Carlsbad, CA) according to the manufacturer's protocol. After 6 hr of transfection, cells were treated with plating medium (as above) containing either solvent (DMSO) or indicated concentrations of the compound for 18 hr. Cells were then lysed and cell extracts were used for chemiluminescence quantification of luciferase activity. Luciferase activity values were normalized against corresponding protein concentration values determined by Bradford assay. Both GAL4- and Flag-NR4A1 constructs contain full-length NR4A1 coding sequence and all the plasmids used in this study were previously described.

T1 sequence (P22736 whole entry, species assumed): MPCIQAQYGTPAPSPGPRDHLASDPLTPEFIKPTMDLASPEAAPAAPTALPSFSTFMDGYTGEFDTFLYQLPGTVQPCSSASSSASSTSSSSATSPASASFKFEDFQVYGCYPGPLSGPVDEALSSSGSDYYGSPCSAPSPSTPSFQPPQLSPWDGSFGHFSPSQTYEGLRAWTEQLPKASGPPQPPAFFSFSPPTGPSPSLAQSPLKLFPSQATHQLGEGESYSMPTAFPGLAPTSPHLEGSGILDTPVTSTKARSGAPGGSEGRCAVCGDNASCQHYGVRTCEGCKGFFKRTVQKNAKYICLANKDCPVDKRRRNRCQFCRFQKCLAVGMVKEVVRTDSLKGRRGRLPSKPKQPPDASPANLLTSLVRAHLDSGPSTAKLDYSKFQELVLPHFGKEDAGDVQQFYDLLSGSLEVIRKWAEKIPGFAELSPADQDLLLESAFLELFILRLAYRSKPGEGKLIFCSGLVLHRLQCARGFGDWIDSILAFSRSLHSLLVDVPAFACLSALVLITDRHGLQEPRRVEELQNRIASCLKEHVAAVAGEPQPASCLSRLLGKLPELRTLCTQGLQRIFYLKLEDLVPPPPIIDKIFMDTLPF

## COc1cc(C(c2c[nH]c3ccccc23)c2c[nH]c3ccccc23)cc(Cl)c1O [DIM-C-pPhOH-3-Cl-5-OCH3]
ESECT-40 cells
  growth of ESECT-40 cells: effectively inhibited the growth
IHEECs
  expression of fibrosis markers (α-SMA, COL1A1, FN, CTGF): decreased expression of fibrosis markers
ESECT-7 cells
  mRNA levels of fibrosis markers (FN, Col1A1, CTGF): decreased mRNA levels
NR4A1
  intrinsic transcriptional activity of NR4A1: inhibited the intrinsic transcriptional activity
